One assay concerns the target T1, StGSH1 (monomer) (Solanum tuberosum, UniProt M1AWB9).
T1 construct: gene LOC102600891; pET32a, E. coli BL21(DE3); His tag removed by TEV; monomer separated on Mono Q
T1 sequence (M1AWB9 74-523): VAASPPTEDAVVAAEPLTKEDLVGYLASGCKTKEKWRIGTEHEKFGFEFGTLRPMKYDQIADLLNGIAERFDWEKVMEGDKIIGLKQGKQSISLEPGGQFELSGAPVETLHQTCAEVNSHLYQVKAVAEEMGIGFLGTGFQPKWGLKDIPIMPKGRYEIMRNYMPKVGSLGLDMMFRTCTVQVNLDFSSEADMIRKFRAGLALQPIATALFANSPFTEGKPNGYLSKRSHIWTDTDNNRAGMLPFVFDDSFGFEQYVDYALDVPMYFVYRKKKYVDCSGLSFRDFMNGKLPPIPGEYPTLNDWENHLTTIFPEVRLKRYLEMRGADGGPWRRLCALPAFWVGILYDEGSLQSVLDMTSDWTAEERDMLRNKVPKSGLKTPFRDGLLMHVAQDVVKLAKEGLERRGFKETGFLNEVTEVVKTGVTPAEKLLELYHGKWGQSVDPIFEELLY
Put plainly: coupled pyruvate kinase/lactate dehydrogenase assay of ADP formation, A340. It is filed as biochemical. The note with it: standard reaction: pH 8.0, 100 mM Tris, 150 mM KCl, 20 mM MgCl2, 10 mM L-cysteine, 20 mM L-glutamate, read-out: ATP. An excerpt:
coupled pyruvate kinase/lactate dehydrogenase assay of ADP formation, A340 on StGSH1 (monomer)

The target in a further assay is T2, StGSH1 (dimer) (Solanum tuberosum, UniProt M1AWB9).
T2 construct: gene LOC102600891; pET32a, E. coli BL21(DE3); His tag removed by TEV; homodimer separated on Mono Q
T2 sequence (M1AWB9 74-523): T1 sequence (M1AWB9 74-523)
The description is as above. It is filed as biochemical. The note with it: standard reaction: pH 8.0, 100 mM Tris, 150 mM KCl, 20 mM MgCl2, 10 mM L-cysteine, 20 mM L-glutamate; homo-dimer; read-out: ATP. An excerpt: coupled pyruvate kinase/lactate dehydrogenase assay of ADP formation, A340 on StGSH1 (dimer)

In the case of `Nc1ncnc2c1ncn2[C@@H]1O[C@H](COP(=O)(O)OP(=O)(O)OP(=O)(O)O)[C@@H](O)[C@H]1O` [ATP], the Km stood at 2410 ± 360 µM on StGSH1 (monomer) and 1000 ± 300 µM on StGSH1 (dimer).

These data come from paper PMC12884754, “A GLUTAMATE CYSTEINE LIGASE Gene StGSH1 Regulated by StERF10 Enhanced Glutathione Accumulation and Adaptation to Low Phosphorus Stress in Potato” (Advanced Science, 2025).
